Values quoted from earlier work as cited in publication PMC3691235, “Discovery of a Novel Dual Fungal CYP51/Human 5-Lipoxygenase Inhibitor: Implications for Anti-Fungal Therapy” (PLoS ONE, 2013).
pIC50, pKd: −log10 of the molar value.

Legend:
[1] = molecular target: T1, Homo sapiens CYP51 (HsCYP51) (Homo sapiens, UniProt Q16850); design: method as in PMID 20149798; conditions: ref [40]; read-out: Kd with HsCYP51, previously reported; cited from earlier work
T1 construct: made in house; host or cells: E. coli
T1 sequence (Q16850 1-509): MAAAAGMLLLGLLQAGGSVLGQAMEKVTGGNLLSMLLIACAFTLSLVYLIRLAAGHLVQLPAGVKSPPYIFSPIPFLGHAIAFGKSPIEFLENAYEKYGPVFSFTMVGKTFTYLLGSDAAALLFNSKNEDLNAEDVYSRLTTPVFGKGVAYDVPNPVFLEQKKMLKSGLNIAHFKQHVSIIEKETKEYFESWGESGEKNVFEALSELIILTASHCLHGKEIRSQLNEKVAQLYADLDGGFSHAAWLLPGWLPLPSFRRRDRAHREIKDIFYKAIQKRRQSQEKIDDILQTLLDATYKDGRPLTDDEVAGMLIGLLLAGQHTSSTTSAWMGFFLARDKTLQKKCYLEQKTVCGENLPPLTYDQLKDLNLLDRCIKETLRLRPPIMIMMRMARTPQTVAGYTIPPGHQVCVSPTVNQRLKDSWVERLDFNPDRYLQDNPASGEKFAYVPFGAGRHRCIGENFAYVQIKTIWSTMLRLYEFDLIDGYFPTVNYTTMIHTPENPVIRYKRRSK

[2] = molecular target: T2, Human leukocyte 5-lipoxygenase (Homo sapiens, UniProt P09917); conditions: ref [12], [13]; read-out: 5-LOX IC50; cited from earlier work
T2 construct: made in house
T2 sequence (P09917 1-674): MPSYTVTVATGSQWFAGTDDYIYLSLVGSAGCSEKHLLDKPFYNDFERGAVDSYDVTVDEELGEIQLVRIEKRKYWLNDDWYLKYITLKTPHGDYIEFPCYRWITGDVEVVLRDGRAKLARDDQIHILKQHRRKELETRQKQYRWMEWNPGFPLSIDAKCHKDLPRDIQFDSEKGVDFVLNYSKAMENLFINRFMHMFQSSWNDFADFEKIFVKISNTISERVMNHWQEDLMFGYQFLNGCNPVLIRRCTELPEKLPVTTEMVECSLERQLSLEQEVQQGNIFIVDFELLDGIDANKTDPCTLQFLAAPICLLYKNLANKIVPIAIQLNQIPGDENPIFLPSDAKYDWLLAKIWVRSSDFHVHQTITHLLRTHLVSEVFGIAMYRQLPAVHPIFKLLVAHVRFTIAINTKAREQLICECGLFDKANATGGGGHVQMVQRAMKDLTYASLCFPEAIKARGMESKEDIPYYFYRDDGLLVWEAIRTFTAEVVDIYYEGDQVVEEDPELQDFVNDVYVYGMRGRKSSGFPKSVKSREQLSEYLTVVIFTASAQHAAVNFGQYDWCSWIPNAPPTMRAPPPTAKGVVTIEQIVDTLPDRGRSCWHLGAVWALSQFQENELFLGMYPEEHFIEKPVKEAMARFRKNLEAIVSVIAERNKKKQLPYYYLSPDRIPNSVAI

| SMILES | pKd [1] | pIC50 [2] |
| --- | --- | --- |
| Clc1ccccc1C(c1ccccc1)(c1ccccc1)n1ccnc1 [clotrimazole] | > 7.00 | – |
| CCC(C)n1ncn(-c2ccc(N3CCN(c4ccc(OCC5COC(Cn6cncn6)(c6ccc(Cl)cc6Cl)O5)cc4)CC3)cc2)c1=O (centres unmarked) [itraconazole] | – | < 4.30 |
